{"source": "patent US9687480B2", "about": "“Chiral 1-(4-methylphenylmethyl)-5-oxo-{N-[(3-t-butoxycarbonyl-aminomethyl)]-piperidin-1-yl)-pyrrolidine as inhibitors of collagen induced platelet activation and adhesion” (Council of Scientific & Industrial Research, priority 2011, dated 2017)", "key": {"[1]": {"tested_on": "mice platelet rich plasma", "assay": "Platelet aggregation (mice, ex vivo) induced by collagen", "format": "in vivo", "settings": "oral route", "protocol": "The reaction was allowed to proceed for at least 5 min, and the extent of aggregation was expressed in light-transmission units (Ivandic B T, Schlick P, Starltz P, Kurz K, Katas H A, Giannitsis E. Determination of clopidogrel resistance by whole blood platelet aggregometry and inhibitors of the P2Y12 receptor. Clinical Chemistry 2006: 52:383-88)."}, "[2]": {"tested_on": "hyperlipidemic hamsters", "assay": "Arterio-venous shunt model in hyperlipidemic hamsters", "format": "in vivo"}, "[3]": {"tested_on": "collagen stimulated platelets", "assay": "Immunoblotting: tyrosine phosphorylation of platelet proteins after collagen stimulation", "format": "cell-based, human", "settings": "10-100 μM", "protocol": "Platelet rich plasma (2×10^8/ml) was pre-incubated with test compound (10-100 μM) or the isovolumetric solvent control (0.5% DMSO) for 5 minutes, followed by the addition of collagen, to trigger platelet activation. The reaction was stopped by the addition of ice cold stop buffer (5 mM EDTA, 5 mM EGTA) and the suspensions were centrifuged at 800×g for 10 minutes and then immediately resuspended in 300 μl of lysis buffer (50 mM HEPES, 5 mM EDTA, 50 mM NaCl, 1% Triton X-100, 10 μg/ml aprotinin, 1 mM PMSF, 10 μg/ml leupeptin, 10 mM NaF, 1 mM sodium orthovanadate, and 5 mM sodium pyrophosphate) (Ezumi Y. Shindoh K, Tsuji M, and Takayama H Physical and Functional Association of the Src Family Kinases Fyn and Lyn with the Collagen Receptor Glycoprotein VI-Fc Receptorg Chain Complex on Human Platelets. J. Exp. Med. 1998; 188: 287-[…]). Lysates were centrifuged at 12,000×g for 5 minutes, after which the supernatants were dissolved in Laemmeli sample buffer (Laemmeli, 1970). […] Immunoreactive bands were detected by chemiluminescence using the ECL-enhanced chemiluminescence system (Inoue K, Ozaki Y, Satoh K, u Y, Yatomi Y, Shin Y and Morita T Signal Transduction Pathways Mediated by Glycoprotein Ia/IIa in Human Platelets: Comparison with those of Glycoprotein VI. Biochem. I and Biophys. Res. Comm. 1999; 256: 114-120)."}}, "data": [{"smiles": "Cc1ccc(CN2C(=O)CC[C@H]2C(=O)N2CCC[C@@H](CNC(=O)OC(C)(C)C)C2)cc1", "note": "[Compound 6]", "values": [{"measurement": "collagen induced platelet aggregation (ex vivo)", "setting": "[1]", "value": "dose dependent inhibition"}, {"measurement": "Arterio-venous shunt model in hyperlipidemic hamsters", "setting": "[2]; Table 2 summary, Even at 10 μM", "value": "Protective"}, {"measurement": "thrombus weight", "setting": "[2]; hyperlipidemic hamsters, compound 6 at 10 μM/kg", "value": "significantly reduced the thrombus weight"}, {"measurement": "tyrosine phosphorylation of platelet proteins", "setting": "[3]", "value": "attenuated the tyrosine phosphorylation"}]}]}
